Test results from patent US20200079758A1, “[4-(PHENYLSULFONYL)PIPERAZIN-1-YL](1H-1,2,3-TRIAZOL-4-YL)METHANONES” (priority 2016, published 2020).
pIC50: −log10 of the molar value.

Biological target: T1, recombinant human AKR1C3 (Homo sapiens, UniProt P42330)
T1 construct: GST (cleaved yes); made in house; host or cells: E. coli
T1 sequence (P42330 1-323): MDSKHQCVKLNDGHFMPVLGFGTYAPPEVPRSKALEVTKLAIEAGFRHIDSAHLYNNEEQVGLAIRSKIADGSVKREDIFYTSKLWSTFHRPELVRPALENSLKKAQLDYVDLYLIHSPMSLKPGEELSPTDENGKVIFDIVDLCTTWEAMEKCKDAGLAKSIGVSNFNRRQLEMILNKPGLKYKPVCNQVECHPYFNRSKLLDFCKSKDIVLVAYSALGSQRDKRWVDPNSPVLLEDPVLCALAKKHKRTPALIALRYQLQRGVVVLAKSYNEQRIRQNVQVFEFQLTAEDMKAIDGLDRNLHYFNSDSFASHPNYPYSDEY
Test: AKR1C3-inhibitory activity assay (generation of Coumberol from Coumberone)
Type: biochemical
Settings: Coumberone 0.3 μM, NADPH 10 μM, 22° C., typically 90 min, average or median values
Method: The AKR1C3-inhibitory activity of the substances of the present invention was measured in the AKR1C3 assay described in the paragraphs below.
Essentially, the enzyme activity is measured by quantification of the generation of Coumberol from Coumberone (Halim et al. J. AM. CHEM. SOC. 2008, 130:14123-14128 and Yee et al. Proc. Natl. Acad. Sci. USA 2006, 103:13304-13309). In this test, the increase of the highly fluorescent Coumberol by NADPH- (nicotinamide adenine dinucleotide phosphate)-dependent reduction of the non-fluorescent Coumberone by AKR1C3 was determined.
The enzyme used was recombinant human AKR1C3 (Aldo-keto reductase family 1 member C3; GenBank Accession No. NM_003739). This was expressed in E. coli as GST (glutathione S transferase) fusion protein and purified by glutathione Sepharose affinity chromatography. The GST was removed by digestion with thrombin and subsequent size exclusion chromatography (Dufort, I., Rheault, P., Huang, X F., Soucy, P., and Luu-The, V., Endocrinology 140, 568-574 (1999)).
For the assay, 50 nl of a 100-fold concentrated solution of the test substance in DMSO were pipetted into a black low-volume 384-well microtiter plate (Greiner Bio-One, Frickenhausen, Germany), 2.5 μl of a solution of AKR1C3 in assay buffer [50 mM potassium phosphate buffer pH 7, 1 mM DTT, 0.0022% (w/v) Pluronic F-127, 0.01% BSA (w/v) and protease inhibitor cocktail (Complete, EDTA-free Protease Inhibitor Cocktail from Roche)] were added and the mixture was incubated for 15 min to allow pre-binding of the substances to the enzyme prior to the enzyme reaction. The enzyme reaction was then started by addition of 2.5 μl of a solution of NADPH (20 μM→final concentration in 5 μl of assay volume is 10 μM) and Coumberone (0.6 μM→final concentration in 5 μl of assay volume is 0.3 μM) in assay buffer, and the resulting mixture was incubated at 22° C. for the reaction time of typically 90 min. The concentration of the AKR1C3 and the reaction time was adapted to the respective activity of the enzyme preparation and adjusted such that the assay was carried out in the linear range. Typical AKR1C3 concentrations were in the region of 1 nM. The reaction was stopped by addition of 2.5 μl of a stop solution consisting of 3 μM EM-1404 as inhibitor (U.S. Pat. No. 6,541,463) in 50 mM HEPES pH7.5 (3 μM EM-1404→final concentration in 7.5 μl of assay volume is 1 μM). The fluorescence of the Coumberole was then measured at 520 nm (excitation at 380 nm) using a suitable measuring instrument (Pherastar from BMG Labtechnologies). The intensity of the fluorescence was used as a measure of the amount of Coumberole formed and thus of the enzyme activity of AKR1C3. The data were normalized (enzyme reaction without inhibitor=0% inhibition; all other assay components, but no enzyme=100% inhibition).

| SMILES | pIC50 |
| --- | --- |
| C[C@@H]1CN(S(=O)(=O)c2ccccc2Cl)C[C@H](C)N1C(=O)c1c[nH]nn1 [Example 46, {(2R,6S)-4-[(2-chlorophenyl)sulfonyl]-2,6-dimethylpiperazin-1-yl}(1H-1,2,3-triazol-4-yl)methanone] | 8.70 |
| C[C@@H]1CN(S(=O)(=O)c2cc(F)cc(F)c2)C[C@H](C)N1C(=O)c1c[nH]nn1 [Example 56, {(2R,6S)-4-[(3,5-difluorophenyl)sulfonyl]-2,6-dimethylpiperazin-1-yl}(1H-1,2,3-triazol-4-yl)methanone] | 7.89 |
| C[C@@H]1CN(C(=O)c2cnn[nH]2)[C@@H](C)CN1S(=O)(=O)c1cccc(C#N)c1 [Example 83, 3-{[(2R,5S)-2,5-dimethyl-4-(1H-1,2,3-triazol-5-ylcarbonyl)piperazin-1-yl]sulfonyl}benzonitrile] | 8.52 |
| C[C@@H]1CN(C(=O)c2c[nH]nn2)[C@@H](C)CN1S(=O)(=O)c1cccnc1 [Example 11, [(2S,5R)-2,5-dimethyl-4-(pyridin-3-ylsulfonyl)piperazin-1-yl](1H-1,2,3-triazol-5-yl)methanone] | 7.11 |
| C[C@@H]1CN(C(=O)c2cnn[nH]2)[C@@H](C)CN1S(=O)(=O)c1cccc(Br)c1 [Example 78, {(2S,5R)-4-[(3-bromophenyl)sulfonyl]-2,5-dimethylpiperazin-1-yl}(1H-1,2,3-triazol-5-yl)methanone] | 9.00 |
| Cc1cc(C)cc(S(=O)(=O)N2C[C@H](C)N(C(=O)c3cnn[nH]3)C[C@H]2C)c1 [Example 92, {(2S,5R)-4-[(3,5-dimethylphenyl)sulfonyl]-2,5-dimethylpiperazin-1-yl}(1H-1,2,3-triazol-5-yl)methanone] | 9.00 |
| C[C@@H]1CN(S(=O)(=O)c2ccc(F)c(F)c2)C[C@H](C)N1C(=O)c1c[nH]nn1 [Example 60, {(2R,6S)-4-[(3,4-difluorophenyl)sulfonyl]-2,6-dimethylpiperazin-1-yl}(1H-1,2,3-triazol-4-yl)methanone] | 7.33 |
| C[C@@H]1CN(S(=O)(=O)c2cccc(C(F)(F)F)c2)C[C@H](C)N1C(=O)c1c[nH]nn1 [Example 57, [(2R,6S)-2,6-dimethyl-4-{[3-(trifluoromethyl)phenyl]sulfonyl}piperazin-1-yl](1H-1,2,3-triazol-4-yl)methanone] | 8.00 |
| C[C@@H]1CN(C(=O)c2cnn[nH]2)[C@@H](C)CN1S(=O)(=O)c1cc(Cl)ccc1C(F)(F)F [Example 89, [(2S,5R)-4-{[5-chloro-2-(trifluoromethyl)phenyl]sulfonyl}-2,5-dimethylpiperazin-1-yl](1H-1,2,3-triazol-5-yl)methanone] | 8.70 |
| C[C@@H]1CN(C(=O)c2cnn[nH]2)C[C@H](C)N1S(=O)(=O)c1cc(Cl)cc(Cl)c1 [Example 40, {(3R,5S)-4-[(3,5-dichlorophenyl)sulfonyl]-3,5-dimethylpiperazin-1-yl}(1H-1,2,3-triazol-5-yl)methanone] | 8.70 |
| C[C@@H]1CN(S(=O)(=O)c2ccc(F)c(Cl)c2)C[C@H](C)N1C(=O)c1cnn[nH]1 [Example 100, {(2R,6S)-4-[(3-chloro-4-fluorophenyl)sulfonyl]-2,6-dimethylpiperazin-1-yl}(1H-1,2,3-triazol-5-yl)methanone] | 7.70 |

Other lines, results leading:

| pIC50 | SMILES |
| --- | --- |
| 8.15 | CC1(C)CN(C(=O)c2cnn[nH]2)CCN1S(=O)(=O)c1cccc(Cl)c1C#N [Example 134, 2-chloro-6-{[2,2-dimethyl-4-(1H-1,2,3-triazol-5-ylcarbonyl)piperazin-1-yl]sulfonyl}benzonitrile] |
| 9.00 | Cc1ccccc1S(=O)(=O)N1C[C@H](C)N(C(=O)c2cnn[nH]2)C[C@H]1C [Example 69, {(2S,5R)-2,5-dimethyl-4-[(2-methylphenyl)sulfonyl]piperazin-1-yl}(1H-1,2,3-triazol-5-yl)methanone] |
| 7.64 | COc1cc(F)ccc1S(=O)(=O)N1CCN(C(=O)c2cnn[nH]2)CC1(C)C [Example 138, {4-[(4-fluoro-2-methoxyphenyl)sulfonyl]-3,3-dimethylpiperazin-1-yl}(1H-1,2,3-triazol-5-yl)methanone] |
| 6.68 | COc1ccc(OC)c(S(=O)(=O)N2CCN(C(=O)c3cnn[nH]3)CC2(C)C)c1 [Example 115, {4-[(2,5-dimethoxyphenyl)sulfonyl]-3,3-dimethylpiperazin-1-yl}(1H-1,2,3-triazol-5-yl)methanone] |
| 7.60 | CC1(C)CN(C(=O)c2cnn[nH]2)CCN1S(=O)(=O)c1ccc2nsnc2c1 [Example 125, [4-(2,1,3-benzothiadiazol-5-ylsulfonyl)-3,3-dimethylpiperazin-1-yl](1H-1,2,3-triazol-5-yl)methanone] |
| 7.72 | CC1(C)CN(C(=O)c2cnn[nH]2)CCN1S(=O)(=O)c1cccc(F)c1Cl [Example 137, {4-[(2-chloro-3-fluorophenyl)sulfonyl]-3,3-dimethylpiperazin-1-yl}(1H-1,2,3-triazol-5-yl)methanone] |
| 7.26 | C[C@@H]1CN(C(=O)c2cnn[nH]2)[C@@H](C)CN1S(=O)(=O)c1ccc(C#N)cc1 [Example 15, 4-{[(2R,5S)-2,5-dimethyl-4-(1H-1,2,3-triazol-5-ylcarbonyl)piperazin-1-yl]sulfonyl}benzonitrile] |
| 8.22 | Cc1ccc(Cl)cc1S(=O)(=O)N1CCN(C(=O)c2cnn[nH]2)CC1(C)C [Example 129, {4-[(5-chloro-2-methylphenyl)sulfonyl]-3,3-dimethylpiperazin-1-yl}(1H-1,2,3-triazol-5-yl)methanone] |
| 8.15 | CC1(C)CN(C(=O)c2c[nH]nn2)CCN1S(=O)(=O)c1ccccc1C(F)(F)F [Example 27, (3,3-dimethyl-4-{[2-(trifluoromethyl)phenyl]sulfonyl}piperazin-1-yl)(1H-1,2,3-triazol-4-yl)methanone] |
| 8.05 | CC1(C)CN(C(=O)c2cnn[nH]2)CCN1S(=O)(=O)c1cccc(Cl)c1Cl [Example 119, {4-[(2,3-dichlorophenyl)sulfonyl]-3,3-dimethylpiperazin-1-yl}(1H-1,2,3-triazol-5-yl)methanone] |
| 8.15 | CC1(C)CN(C(=O)c2c[nH]nn2)CCN1S(=O)(=O)c1cc(Cl)ccc1Cl [Example 25, {4-[(2,5-dichlorophenyl)sulfonyl]-3,3-dimethylpiperazin-1-yl}(1H-1,2,3-triazol-4-yl)methanone] |
| 8.00 | CC1(C)CN(C(=O)c2cnn[nH]2)CCN1S(=O)(=O)c1ccccc1[N+](=O)[O-] [Example 114, {3,3-dimethyl-4-[(2-nitrophenyl)sulfonyl]piperazin-1-yl}(1H-1,2,3-triazol-5-yl)methanone] |
| 8.05 | C[C@@H]1CN(C(=O)c2cnn[nH]2)C[C@H](C)N1S(=O)(=O)c1cccc(F)c1 [Example 41, {(3R,5S)-4-[(3-fluorophenyl)sulfonyl]-3,5-dimethylpiperazin-1-yl}(1H-1,2,3-triazol-5-yl)methanone] |
| 7.92 | CC1(C)CN(C(=O)c2cnn[nH]2)CCN1S(=O)(=O)c1c(Cl)cc(Cl)cc1Cl [Example 123, {3,3-dimethyl-4-[(2,4,6-trichlorophenyl)sulfonyl]piperazin-1-yl}(1H-1,2,3-triazol-5-yl)methanone] |
| 8.52 | C[C@@H]1CN(C(=O)c2cnn[nH]2)[C@@H](C)CN1S(=O)(=O)c1ccc(Cl)cc1 [Example 63, {(2S,5R)-4-[(4-chlorophenyl)sulfonyl]-2,5-dimethylpiperazin-1-yl}(1H-1,2,3-triazol-5-yl)methanone] |
| 8.70 | Cc1c(Cl)cccc1S(=O)(=O)N1C[C@H](C)N(C(=O)c2cnn[nH]2)C[C@H]1C [Example 77, {(2S,5R)-4-[(3-chloro-2-methylphenyl)sulfonyl]-2,5-dimethylpiperazin-1-yl}(1H-1,2,3-triazol-5-yl)methanone] |
